Among the data in PubChem BioAssay (NCI) are GI50 and TGI values, retold here.

The structures appear in SMILES notation.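 1) Cells in 96-well plates. 2) Compound, 48 h, 5 concentrations. 3) Linear interpolation between surrounding doses. 4) Unreached endpoint = highest concentration. The concentration for 50% growth inhibition is given as GI50. TGI: total growth inhibition.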

The first experiment has as its system HOP-62 NSCLC. Kind of experiment: NCI anticancer screen, dose series, 48 h.
Take `O=c1cc(CNc2cc(F)cc(F)c2)c2ccc(I)cc2[nH]1`: the GI50 is 1980 nM and the TGI was greater than 100 µM.

Regarding `CCCN(Cc1ccc(F)cc1)c1ccc(CO)c(Cl)c1`, the GI50 was 2400 nM and the TGI came to 17.1 µM.

On to `CCN=C1C=CC(=C(c2ccc(N(C)C)cc2)c2ccc(N(C)C)cc2)c2ccccc21`, for which the GI50 was 82.5 nM and the TGI came to 0.578 µM.

In turn, `Nc1ncnc2c1ccn2C1OC2COP(=O)(O)OC2C1O` (centres undefined) came in with a TGI of 11.2 µM.

With `Cc1cc(N2CCCCC2)nc(N(CCNc2ccnc3cc(Cl)ccc23)Cc2ccco2)n1`, the GI50 was 1730 nM and the TGI stood at 3.73 µM.

Take `O=C(O)[C@@H]1C2CC([C@@H]1C(=O)O)[C@H](N1C(=O)CCC1=O)[C@@H]2Br` (some centres undefined): the TGI is greater than 100 µM.

As for `CCOC(=O)c1c2c(n(CC(C)C)c1C)-c1nc[nH]c1C(=O)C2=O`, the GI50 was 19100 nM and the TGI stood at 34.2 µM.

As for `CN(C)CCNC(=O)c1cccn2c(=O)c3cc4ccccc4cc3nc12`, the GI50 was 78.4 nM and the TGI was determined as 0.554 µM.

Consider `Cn1c(=O)c2[nH]c(/N=N/N3CCN(CCO)CC3)nc2n(C)c1=O`, for which the TGI is greater than 100 µM.

Consider `c1ccc2nc(Cn3c[n+](Cc4ccc5ccccc5n4)c4ccccc43)ccc2c1`, for which the GI50 is 2970 nM and the TGI amounted to 13.7 µM.

Regarding `COc1ccc2c(c1)CCC1C2CCC2(C)C1CCC2(O)CNC(=O)CCCCC1CCSS1` (centres undefined), the GI50 is 25000 nM and the TGI is greater than 100 µM.

In the case of `COc1cc(Cn2cc3c(c2)-c2oncc2CC3)cc(OC)c1OC`, the GI50 is 47.9 nM and the TGI is greater than 100 µM.

Take `COc1ccc(C(=O)/C=C/c2ccc(Cl)cc2)cc1S(=O)(=O)Nc1c(N)nc(SC)[nH]c1=O`: the GI50 is 1810 nM and the TGI is 3.97 µM.

`CC(C)(C(=O)NN)c1ccccc1` displayed a TGI greater than 100 µM.

For the compound `COc1ccc(Cn2nc(-c3cc(OC)c(OC)c(OC)c3)c3c2CCc2cnoc2-3)cc1OC`, the GI50 was 6350 nM and the TGI amounted to 82.7 µM.

`O=C1C(Cl)=C(N/N=c2/[nH][nH]/c(=N/NC3=C(Cl)C(=O)c4ccccc4C3=O)c3ccccc23)C(=O)c2ccccc21`: the GI50 is 10200 nM and the TGI came out at 23.2 µM.

In the next experiment the test system is SNB-75 CNS. Kind of experiment: NCI anticancer screen, dose series, 48 h.
`O=c1cc(CNc2cc(F)cc(F)c2)c2ccc(I)cc2[nH]1`: the GI50 was 199 nM and the TGI worked out at 3.45 µM.

For `CCCN(Cc1ccc(F)cc1)c1ccc(CO)c(Cl)c1`, the GI50 was 10600 nM and the TGI was 22.7 µM.

With `CCN=C1C=CC(=C(c2ccc(N(C)C)cc2)c2ccc(N(C)C)cc2)c2ccccc21`, the GI50 was 83.3 nM and the TGI is 0.332 µM.

For `Cc1cc(N2CCCCC2)nc(N(CCNc2ccnc3cc(Cl)ccc23)Cc2ccco2)n1`, the GI50 was 1880 nM and the TGI was 4.33 µM.

Turning to `O=C(O)[C@@H]1C2CC([C@@H]1C(=O)O)[C@H](N1C(=O)CCC1=O)[C@@H]2Br` (some centres undefined), the TGI was greater than 100 µM.

Turning to `CN(C)CCNC(=O)c1cccn2c(=O)c3cc4ccccc4cc3nc12`, the GI50 was 280 nM and the TGI is 1.77 µM.

For `c1ccc2nc(Cn3c[n+](Cc4ccc5ccccc5n4)c4ccccc43)ccc2c1`, the GI50 is 2090 nM and the TGI was 9.13 µM.

For the compound `COc1cc2cc(Oc3ccc(NC(=O)Nc4ccc(Cl)c(C(F)(F)F)c4)cc3)c(C)nc2cc1OCCN1CCCCC1`, the GI50 is 1130 nM and the TGI was determined as 2.33 µM.

`CC(C)(C(=O)NN)c1ccccc1` displayed a TGI greater than 100 µM.

Turning to `COc1ccc(Cn2nc(-c3cc(OC)c(OC)c(OC)c3)c3c2CCc2cnoc2-3)cc1OC`, the GI50 was 1390 nM and the TGI is 5.64 µM.

Take `O=C1C(Cl)=C(N/N=c2/[nH][nH]/c(=N/NC3=C(Cl)C(=O)c4ccccc4C3=O)c3ccccc23)C(=O)c2ccccc21`: the GI50 is 1490 nM and the TGI worked out at 15.3 µM.

The subject of another experiment is DU-145 prostate. Kind of experiment: NCI anticancer screen, dose series, 48 h.
In the case of `O=c1cc(CNc2cc(F)cc(F)c2)c2ccc(I)cc2[nH]1`, the GI50 is 1.69 µM and the TGI was greater than 100 µM.

Take `CCCN(Cc1ccc(F)cc1)c1ccc(CO)c(Cl)c1`: the GI50 was 13.3 µM and the TGI stood at 26.5 µM.

In the case of `CCN=C1C=CC(=C(c2ccc(N(C)C)cc2)c2ccc(N(C)C)cc2)c2ccccc21`, the GI50 is 0.0829 µM and the TGI is 0.357 µM.

In turn, `Nc1ncnc2c1ccn2C1OC2COP(=O)(O)OC2C1O` (centres undefined) had a TGI greater than 100 µM.

Take `Cc1cc(N2CCCCC2)nc(N(CCNc2ccnc3cc(Cl)ccc23)Cc2ccco2)n1`: the GI50 was 2.87 µM and the TGI came out at 9.2 µM.

With `O=C(O)[C@@H]1C2CC([C@@H]1C(=O)O)[C@H](N1C(=O)CCC1=O)[C@@H]2Br` (some centres undefined), the TGI is greater than 100 µM.

With `CCOC(=O)c1c2c(n(CC(C)C)c1C)-c1nc[nH]c1C(=O)C2=O`, the GI50 is 16.1 µM and the TGI amounted to 29.6 µM.

With `CN(C)CCNC(=O)c1cccn2c(=O)c3cc4ccccc4cc3nc12`, the GI50 was 0.103 µM and the TGI is 0.391 µM.

As for `Cn1c(=O)c2[nH]c(/N=N/N3CCN(CCO)CC3)nc2n(C)c1=O`, the TGI is greater than 100 µM.

As to `c1ccc2nc(Cn3c[n+](Cc4ccc5ccccc5n4)c4ccccc43)ccc2c1`, the GI50 was 4.55 µM and the TGI was determined as 17 µM.

Consider `COc1cc2cc(Oc3ccc(NC(=O)Nc4ccc(Cl)c(C(F)(F)F)c4)cc3)c(C)nc2cc1OCCN1CCCCC1`, for which the GI50 was 1.53 µM and the TGI is 2.87 µM.

Consider `COc1ccc2c(c1)CCC1C2CCC2(C)C1CCC2(O)CNC(=O)CCCCC1CCSS1` (centres undefined), for which the GI50 was 46.3 µM and the TGI is greater than 100 µM.

As to `COc1cc(Cn2cc3c(c2)-c2oncc2CC3)cc(OC)c1OC`, the GI50 is 0.0412 µM and the TGI was greater than 100 µM.

On to `COc1ccc(C(=O)/C=C/c2ccc(Cl)cc2)cc1S(=O)(=O)Nc1c(N)nc(SC)[nH]c1=O`, for which the GI50 was 3.58 µM and the TGI amounted to 11.5 µM.

Turning to `CC(C)(C(=O)NN)c1ccccc1`, the TGI is greater than 100 µM.

Consider `COc1ccc(Cn2nc(-c3cc(OC)c(OC)c(OC)c3)c3c2CCc2cnoc2-3)cc1OC`, for which the GI50 was 13.2 µM and the TGI was greater than 100 µM.

On to `O=C1C(Cl)=C(N/N=c2/[nH][nH]/c(=N/NC3=C(Cl)C(=O)c4ccccc4C3=O)c3ccccc23)C(=O)c2ccccc21`, for which the GI50 was 17.8 µM and the TGI is 33.6 µM.

The test system of the next experiment is BT-549 breast. Description: NCI anticancer screen, dose series, 48 h.
Regarding `O=c1cc(CNc2cc(F)cc(F)c2)c2ccc(I)cc2[nH]1`, the GI50 was 1020 nM and the TGI was greater than 100 µM.

In the case of `CCCN(Cc1ccc(F)cc1)c1ccc(CO)c(Cl)c1`, the GI50 is 11700 nM and the TGI is 25.6 µM.

For the compound `CCN=C1C=CC(=C(c2ccc(N(C)C)cc2)c2ccc(N(C)C)cc2)c2ccccc21`, the GI50 was 86.8 nM and the TGI came to 0.489 µM.

As for `Nc1ncnc2c1ccn2C1OC2COP(=O)(O)OC2C1O` (centres undefined), the TGI stood at 24 µM.

Consider `Cc1cc(N2CCCCC2)nc(N(CCNc2ccnc3cc(Cl)ccc23)Cc2ccco2)n1`, for which the GI50 is 1820 nM and the TGI is 3.5 µM.

For the compound `O=C(O)[C@@H]1C2CC([C@@H]1C(=O)O)[C@H](N1C(=O)CCC1=O)[C@@H]2Br` (some centres undefined), the TGI was greater than 100 µM.

Take `CCOC(=O)c1c2c(n(CC(C)C)c1C)-c1nc[nH]c1C(=O)C2=O`: the GI50 is 16400 nM and the TGI was determined as 30.4 µM.

With `CN(C)CCNC(=O)c1cccn2c(=O)c3cc4ccccc4cc3nc12`, the GI50 is 680 nM and the TGI was 2.83 µM.

As to `Cn1c(=O)c2[nH]c(/N=N/N3CCN(CCO)CC3)nc2n(C)c1=O`, the TGI is greater than 100 µM.

Turning to `c1ccc2nc(Cn3c[n+](Cc4ccc5ccccc5n4)c4ccccc43)ccc2c1`, the GI50 is 1950 nM and the TGI was determined as 6.5 µM.

As for `COc1cc2cc(Oc3ccc(NC(=O)Nc4ccc(Cl)c(C(F)(F)F)c4)cc3)c(C)nc2cc1OCCN1CCCCC1`, the GI50 was 1790 nM and the TGI was 3.45 µM.

On to `COc1ccc2c(c1)CCC1C2CCC2(C)C1CCC2(O)CNC(=O)CCCCC1CCSS1` (centres undefined), for which the GI50 was 19300 nM and the TGI was 98.4 µM.

In the case of `COc1cc(Cn2cc3c(c2)-c2oncc2CC3)cc(OC)c1OC`, the GI50 is 111 nM and the TGI was greater than 100 µM.

On to `COc1ccc(C(=O)/C=C/c2ccc(Cl)cc2)cc1S(=O)(=O)Nc1c(N)nc(SC)[nH]c1=O`, for which the GI50 is 1630 nM and the TGI came to 3.17 µM.

On to `CC(C)(C(=O)NN)c1ccccc1`, for which the TGI was greater than 100 µM.

Consider `COc1ccc(Cn2nc(-c3cc(OC)c(OC)c(OC)c3)c3c2CCc2cnoc2-3)cc1OC`, for which the GI50 is 5620 nM and the TGI is greater than 100 µM.

Take `O=C1C(Cl)=C(N/N=c2/[nH][nH]/c(=N/NC3=C(Cl)C(=O)c4ccccc4C3=O)c3ccccc23)C(=O)c2ccccc21`: the GI50 is 13500 nM and the TGI was determined as 26.8 µM.

The subject of the next experiment is UACC-62 melanoma. Description: NCI anticancer screen, dose series, 48 h.
Consider `O=c1cc(CNc2cc(F)cc(F)c2)c2ccc(I)cc2[nH]1`, for which the GI50 is 508 nM and the TGI is greater than 100 µM.

With `CCCN(Cc1ccc(F)cc1)c1ccc(CO)c(Cl)c1`, the GI50 was 167 nM and the TGI was 0.907 µM.

For the compound `Nc1ncnc2c1ccn2C1OC2COP(=O)(O)OC2C1O` (centres undefined), the TGI worked out at 1.45 µM.

On to `Cc1cc(N2CCCCC2)nc(N(CCNc2ccnc3cc(Cl)ccc23)Cc2ccco2)n1`, for which the GI50 is 1740 nM and the TGI is 3.34 µM.

The compound `O=C(O)[C@@H]1C2CC([C@@H]1C(=O)O)[C@H](N1C(=O)CCC1=O)[C@@H]2Br` (some centres undefined) came in with a TGI greater than 100 µM.

For `CN(C)CCNC(=O)c1cccn2c(=O)c3cc4ccccc4cc3nc12`, the GI50 is 194 nM and the TGI came to 1.37 µM.

Take `Cn1c(=O)c2[nH]c(/N=N/N3CCN(CCO)CC3)nc2n(C)c1=O`: the TGI was greater than 100 µM.

As to `c1ccc2nc(Cn3c[n+](Cc4ccc5ccccc5n4)c4ccccc43)ccc2c1`, the GI50 was 1340 nM and the TGI turned out to be 3.51 µM.

For `COc1cc2cc(Oc3ccc(NC(=O)Nc4ccc(Cl)c(C(F)(F)F)c4)cc3)c(C)nc2cc1OCCN1CCCCC1`, the GI50 is 1690 nM and the TGI was 3.08 µM.

In the case of `COc1ccc2c(c1)CCC1C2CCC2(C)C1CCC2(O)CNC(=O)CCCCC1CCSS1` (centres undefined), the GI50 was 13900 nM and the TGI is 49.4 µM.

For `COc1cc(Cn2cc3c(c2)-c2oncc2CC3)cc(OC)c1OC`, the GI50 was 36.2 nM and the TGI was greater than 81.7 µM.

As for `COc1ccc(C(=O)/C=C/c2ccc(Cl)cc2)cc1S(=O)(=O)Nc1c(N)nc(SC)[nH]c1=O`, the GI50 is 2330 nM and the TGI is 6.65 µM.

The compound `CC(C)(C(=O)NN)c1ccccc1` showed a TGI greater than 100 µM.

Regarding `COc1ccc(Cn2nc(-c3cc(OC)c(OC)c(OC)c3)c3c2CCc2cnoc2-3)cc1OC`, the GI50 was 3780 nM and the TGI was 56.5 µM.

The test system of the next experiment is CAKI-1 renal. Description: NCI anticancer screen, dose series, 48 h.
`O=c1cc(CNc2cc(F)cc(F)c2)c2ccc(I)cc2[nH]1`: the GI50 was 421 nM and the TGI was greater than 100 µM.
